Assay results as given in patent publication US20140024638A1, “TREATMENT OF COGNITIVE DYSFUNCTION IN SCHIZOPHRENIA” (TARGACEPT, INC., priority 2011, published 2014).

Columns and labels:
Assay type in all cases: in vivo, human
[1] = test system: patients with schizophrenia; test: Scale for Assessment of Negative Symptoms (SANS), Phase 2 trial; details: for SANS TOTAL SCORE: Adjusted Mean / SANS TOTAL SCORE: Mean Difference ± SE between TC-5619 and Placebo (Placebo-TC5619): All Patients; for SANS: Mean (SE): tobacco users; for SANS: Mean (SEM): total population
Description: (§1) The double blind, placebo controlled Phase 2 trial was conducted at 7 sites in the United States and 12 sites in India. […] Of the randomized patients, approximately 69% were male and approximately 46% were users of tobacco products. […] The primary efficacy outcome measure was GMLT, and the trial included a number of other scales as secondary efficacy outcome measures.

[2] = test system: patients with schizophrenia; test: CogState Schizophrenia Battery Composite score, Phase 2 trial; details: for CogState Composite score: Mean (SE): tobacco users meeting data integrity criteria; for CogState Composite score: Mean (SEM): total population, subjects meeting data integrity criteria
Description: As provided in the above-referenced brochure, CogState is a provider of cognitive testing products and services that predominantly caters to the global pharmaceutical industry. The Schizophrenia Cognitive Test Battery covers all domains identified by MATRICS initiative; requires around 35 minutes for administration; is sensitive to the effects of novel compounds and licensed medication; is sensitive to the effects of medication in groups or individual patients; and the outcome measures are related to functional status.
as §1

[3] = test system: patients with schizophrenia; test: CogState Social-Emotional Cognition task, Phase 2 trial; details: for CogState Social-Emotional Cognition: Mean (SE): tobacco users meeting data integrity criteria; for CogState Social-Emotional Cognition: Mean (SEM): total population, subjects meeting data integrity criteria
Description: as §1

O=C(N[C@@H]1C2CCN(CC2)[C@H]1Cc1cccnc1)c1cc2ccccc2o1 (single isomer, unassigned) [TC-5619]
SANS TOTAL SCORE: Adjusted Mean ([1]; Week 1, 1 mg daily, SE 0.93, placebo −0.92): −1.20
SANS TOTAL SCORE: Mean Difference ± SE between TC-5619 and Placebo (Placebo-TC5619) ([1]; Week 1, 1 mg daily, one-sided 90% CI (−0.77, ∞), one-sided P 0.3647): 0.28 ± 0.82
SANS TOTAL SCORE: Adjusted Mean ([1]; Week 4, 1 mg daily, SE 1.11, placebo −2.74): −3.52
SANS TOTAL SCORE: Mean Difference ± SE between TC-5619 and Placebo (Placebo-TC5619) ([1]; Week 4, 1 mg daily, one-sided 90% CI (−0.74, ∞), one-sided P 0.2547): 0.78 ± 1.18
SANS TOTAL SCORE: Adjusted Mean ([1]; Week 8, 5 mg daily, SE 1.25, placebo −5.55): −7.25
SANS TOTAL SCORE: Mean Difference ± SE between TC-5619 and Placebo (Placebo-TC5619) ([1]; Week 8, 5 mg daily, one-sided 90% CI (−0.14, ∞), one-sided P 0.1184): 1.71 ± 1.44
SANS TOTAL SCORE: Adjusted Mean ([1]; Week 12, 25 mg daily, SE 1.40, placebo −6.23): −9.93
SANS TOTAL SCORE: Mean Difference ± SE between TC-5619 and Placebo (Placebo-TC5619) ([1]; Week 12, 25 mg daily, one-sided 90% CI (1.53, ∞), one-sided P 0.0147): 3.70 ± 1.68
SANS, result in words ([1]; secondary outcome measure, investigator assessment of negative symptoms): encouraging efficacy signals
SANS: Mean (SE) ([1]; Week 4, 1 mg daily, 1-tailed p = 0.098): 2.74 (2.10); p = 0.098
SANS: Mean (SE) ([1]; Week 8, 5 mg daily, 1-tailed p = 0.054): 4.00 (2.45); p = 0.054
SANS: Mean (SE) ([1]; Week 12, 25 mg daily, 1-tailed p = 0.033): 4.86 (2.58); p = 0.033
SANS: Mean (SEM) ([1]; Week 4, 1 mg daily, 1-tailed p = 0.255): 0.78 (1.18); p = 0.255
SANS: Mean (SEM) ([1]; Week 8, 5 mg daily, 1-tailed p = 0.118): 1.71 (1.44); p = 0.118
SANS: Mean (SEM) ([1]; Week 12, 25 mg daily, 1-tailed p = 0.015): 3.70 (1.68); p = 0.015
CogState composite score, result in words ([2]; in vivo): statistically significant results of improvement
CogState Composite score: Mean (SE) ([2]; Week 4, 1 mg daily, 1-tailed p = 0.471): 0.007 0.099); p = 0.471
CogState Composite score: Mean (SE) ([2]; Week 8, 5 mg daily, 1-tailed p = 0.614): −0.029 (0.101); p = 0.614
CogState Composite score: Mean (SE) ([2]; Week 12, 25 mg daily, 1-tailed p = 0.098): 0.129 0.100); p = 0.098 ^
CogState Composite score: Mean (SEM) ([2]; Week 4, 1 mg daily, 1-tailed p = 0.838): −0.066 (0.066); p = 0.838
CogState Composite score: Mean (SEM) ([2]; Week 8, 5 mg daily, 1-tailed p = 0.821): −0.062 .068); p = 0.821^
CogState Composite score: Mean (SEM) ([2]; Week 12, 25 mg daily, 1-tailed p = 0.326): 0.030 0.067); p = 0.326 ^
CogState Social-Emotional Cognition: Mean (SE) ([3]; Week 4, 1 mg daily, 1-tailed p = 0.632): −0.010 (0.028); p = 0.632
CogState Social-Emotional Cognition: Mean (SE) ([3]; Week 8, 5 mg daily, 1-tailed p = 0.625): −0.009 (0.029); p = 0.625
CogState Social-Emotional Cognition: Mean (SE) ([3]; Week 12, 25 mg daily, 1-tailed p = 0.752): −0.019 (0.027); p = 0.752
CogState Social-Emotional Cognition: Mean (SEM) ([3]; Week 4, 1 mg daily, 1-tailed p = 0.259): 0.013 (0.020); p = 0.259
CogState Social-Emotional Cognition: Mean (SEM) ([3]; Week 8, 5 mg daily, 1-tailed p = 0.217): 0.015 (0.020); p = 0.217
CogState Social-Emotional Cognition: Mean (SEM) ([3]; Week 12, 25 mg daily, 1-tailed p = 0.546): −0.002 (0.020); p = 0.546
